{"source": "patent US5162330A", "about": "“Dynemicin C antibiotic, its triacetyl derivative and pharmaceutical composition containing same” (Bristol-Myers Squibb Co., priority 1990, dated 1992)", "key": {"[1]": {"system": "E. cloacae IPM-12", "assay": "In vitro antibacterial MIC", "format": "cell-based", "conditions": "Enterobacter cloacae, IPM12, 18 h, pH 7", "experimental": "(§1) The minimum inhibitory concentration (MIC) was determined by a two-fold serial tube dilution method using nutrient agar (pH7, Difco containing 10^5 cfu/ml)."}, "[2]": {"system": "E. coli 255", "assay": "In vitro antibacterial MIC", "format": "cell-based", "conditions": "Escherichia coli, 255, 18 h, pH 7", "experimental": "as §1"}, "[3]": {"system": "E. coli Juhl A15119", "assay": "In vitro antibacterial MIC", "format": "cell-based", "conditions": "Escherichia coli, JUHLA15119, 18 h, pH 7", "experimental": "as §1"}, "[4]": {"system": "E. faecalis A9808", "assay": "In vitro antibacterial MIC", "format": "cell-based", "conditions": "Enterococcus faecalis, A9808, 18 h, pH 7", "experimental": "as §1"}, "[5]": {"system": "E. faecium A24817", "assay": "In vitro antibacterial MIC", "format": "cell-based", "conditions": "Enterococcus faecium, pH 7, nutrient agar pH7, 32° C., 18 hours", "experimental": "as §1"}, "[6]": {"system": "K. pneumoniae PCI 602", "assay": "In vitro antibacterial MIC", "format": "cell-based", "conditions": "Klebsiella pneumoniae, PCI602, 18 h, pH 7", "experimental": "as §1"}, "[7]": {"system": "M. luteus PCI 1001", "assay": "In vitro antibacterial MIC", "format": "cell-based", "conditions": "Micrococcus luteus, PCI1001, pH 7, nutrient agar pH7, 32° C., 18 hours", "experimental": "as §1"}, "[8]": {"system": "M. morganii I510", "assay": "In vitro antibacterial MIC", "format": "cell-based", "conditions": "Morganella morganii, I510, 18 h, pH 7", "experimental": "as §1"}, "[9]": {"system": "P. aeruginosa A20599", "assay": "In vitro antibacterial MIC", "format": "cell-based", "conditions": "Pseudomonas aeruginosa, A20599, 18 h, pH 7", "experimental": "as §1"}, "[10]": {"system": "P. aeruginosa A9843A", "assay": "In vitro antibacterial MIC", "format": "cell-based", "conditions": "Pseudomonas aeruginosa, 18 h, pH 7", "experimental": "as §1"}, "[11]": {"system": "P. aeruginosa IPM-8", "assay": "In vitro antibacterial MIC", "format": "cell-based", "conditions": "Pseudomonas aeruginosa, IPM8, 18 h, pH 7", "experimental": "as §1"}, "[12]": {"system": "P. aeruginosa IPM-9", "assay": "In vitro antibacterial MIC", "format": "cell-based", "conditions": "Pseudomonas aeruginosa, IPM9, 18 h, pH 7", "experimental": "as §1"}, "[13]": {"system": "P. aeruginosa KKA19", "assay": "In vitro antibacterial MIC", "format": "cell-based", "conditions": "Pseudomonas aeruginosa, pH 7, nutrient agar pH7, 32° C., 18 hours", "experimental": "as §1"}, "[14]": {"system": "P. cepecia A21213", "assay": "In vitro antibacterial MIC", "format": "cell-based", "conditions": "18 h, pH 7", "experimental": "as §1"}, "[15]": {"system": "P. cepecia No. 651", "assay": "In vitro antibacterial MIC", "format": "cell-based", "conditions": "18 h, pH 7", "experimental": "as §1"}, "[16]": {"system": "P. mirabilis IFO 3849", "assay": "In vitro antibacterial MIC", "format": "cell-based", "conditions": "Proteus mirabilis, IFO3849, 18 h, pH 7", "experimental": "as §1"}, "[17]": {"system": "P. rettgeri IPM-14", "assay": "In vitro antibacterial MIC", "format": "cell-based", "conditions": "Providencia rettgeri, IPM14, 18 h, pH 7", "experimental": "as §1"}, "[18]": {"system": "P. vulgaris IPM-13", "assay": "In vitro antibacterial MIC", "format": "cell-based", "conditions": "Proteus vulgaris, IPM13, 18 h, pH 7", "experimental": "as §1"}, "[19]": {"system": "S. aureus A15036 (MRSA)", "assay": "In vitro antibacterial MIC", "format": "cell-based", "conditions": "Staphylococcus aureus, 18 h, pH 7", "experimental": "as §1"}, "[20]": {"system": "S. aureus IPM-24 (MRSA)", "assay": "In vitro antibacterial MIC", "format": "cell-based", "conditions": "Staphylococcus aureus, 18 h, pH 7", "experimental": "as §1"}, "[21]": {"system": "S. aureus smith", "assay": "In vitro antibacterial MIC", "format": "cell-based", "conditions": "Staphylococcus aureus, 18 h, pH 7", "experimental": "as §1"}, "[22]": {"system": "S. epidermidis 11-1230", "assay": "In vitro antibacterial MIC", "format": "cell-based", "conditions": "Staphylococcus epidermidis, 111230, 18 h, pH 7", "experimental": "as §1"}, "[23]": {"system": "S. marcescens IPM-15", "assay": "In vitro antibacterial MIC", "format": "cell-based", "conditions": "Serratia marcescens, IPM15, 18 h, pH 7", "experimental": "as §1"}, "[24]": {"system": "S. marcescens IPM-16", "assay": "In vitro antibacterial MIC", "format": "cell-based", "conditions": "Serratia marcescens, IPM16, 18 h, pH 7", "experimental": "as §1"}, "[25]": {"system": "X. maltophilia GN12873", "assay": "In vitro antibacterial MIC", "format": "cell-based", "conditions": "Stenotrophomonas maltophilia, pH 7, nutrient agar pH7, 32° C., 18 hours", "experimental": "as §1"}, "[26]": {"system": "X. maltophilia No. 661", "assay": "In vitro antibacterial MIC", "format": "cell-based", "conditions": "Stenotrophomonas maltophilia, pH 7, nutrient agar pH7, 32° C., 18 hours", "experimental": "as §1"}, "[27]": {"system": "Candida albicans ATCC 38247", "assay": "In vitro antifungal MIC", "format": "cell-based", "experimental": "(§2) The antifungal MICs of dynemicin C and its triacetate were determined by an agar dilution method on yeast morphology agar adjusted to pH7.0 with 1/15M phosphate buffer. A 5 μl aliquot of fungal suspension containing 10^6 cells/ml was inoculated onto the surface of the antibiotic-containing agar plates with a multiinoculator."}, "[28]": {"system": "Cryptococcus neoformans D49", "assay": "In vitro antifungal MIC", "format": "cell-based", "experimental": "as §2"}, "[29]": {"system": "C. neoformans IAM4514", "assay": "In vitro antifungal MIC", "format": "cell-based, Cryptococcus neoformans", "experimental": "as §2"}, "[30]": {"system": "B16-F10 (murine melanoma) cells", "assay": "In vitro cytotoxicity", "format": "cell-based", "conditions": "Mus musculus, 72 hours, 37° C., neutral red, 540 nm", "experimental": "(§3) Dynemicin C and its triacetate derivative were tested for in vitro cytotoxicity against murine and human tumor cell lines. Dynemicin A and its triacetate derivative were used as reference compounds. B16-F10 (murine melanoma) cells were grown to the logarithmic phase in enriched Eagle minimum essential medium (MEM) supplemented with fetal calf serum (FCS, 10%) and kanamycin (60 mcg/ml) and HCT-116 (human colon carcinoma) cells in Maccoy's 5A medium supplemented with FCS (10%), penicillin (100 μ/ml) and streptomycin (100 mcg/ml), and were harvested and inoculated into wells of the 96- or 24-well tissue culture plate with test materials at concentrations of 1.5×10^4, 1.3×10^4, 1.3×10^4, 2.5×10^4 and 3.0×10^4 cells/ml., respectively. They were incubated at 37° C. in a humidified atmosphere of 5% CO2 and 95% air for 72 hours. The cytotoxic activities were determined colorimetrically at 540 nm after staining viable cells with 0.006% neutral red solution."}, "[31]": {"system": "HCT-116 (human colon carcinoma) cells", "assay": "In vitro cytotoxicity", "format": "cell-based", "conditions": "72 hours, 37° C., neutral red, 540 nm", "experimental": "as §3"}, "[32]": {"system": "gram-positive organisms", "assay": "In vitro antibacterial activity, gram-positive organisms as a group", "format": "cell-based", "experimental": "as §1"}, "[33]": {"system": "gram-negative organisms", "assay": "In vitro antibacterial activity, gram-negative organisms as a group", "format": "cell-based", "conditions": "other gram-negatives than P. aeruginosa, except Enterobacter cloacae IPM-12 and Serratia marcescens IPM-16", "experimental": "as §1"}, "[34]": {"system": "Pseudomonas aeruginosa species", "assay": "In vitro antibacterial activity, Pseudomonas aeruginosa as a group", "format": "cell-based", "conditions": "in words", "experimental": "as §1"}, "[35]": {"system": "murine and human tumor cell lines", "assay": "In vitro cytotoxicity, tumor cell lines as a group", "format": "cell-based", "conditions": "in words", "experimental": "as §3"}, "[36]": {"assay": "Solubility", "format": "physicochemical"}}, "data": [{"smiles": "COC1=C(C=O)C(C)C23OC24c2cc(O)c5c(c2NC3C#CC=CC#CC14)C(=O)c1c(O)ccc(O)c1C5=O", "note": "(centres unmarked) [Dynemicin C]", "values": [{"measurement": "MIC", "setting": "[1]", "value": 100, "unit": "µg/mL"}, {"measurement": "MIC", "setting": "[2]", "value": 100, "unit": "µg/mL"}, {"measurement": "MIC", "setting": "[3]", "value": 100, "unit": "µg/mL"}, {"measurement": "MIC", "setting": "[4]", "value": 0.0008, "unit": "µg/mL"}, {"measurement": "MIC", "setting": "[5]", "value": 0.0008, "unit": "µg/mL"}, {"measurement": "MIC", "setting": "[6]", "value": 0.8, "unit": "µg/mL"}, {"measurement": "MIC", "setting": "[7]", "value": 0.0008, "unit": "µg/mL"}, {"measurement": "MIC", "setting": "[8]", "value": 0.1, "unit": "µg/mL"}, {"measurement": "MIC", "setting": "[9]", "value": 100, "unit": "µg/mL"}, {"measurement": "MIC", "setting": "[10]", "value": 100, "unit": "µg/mL"}, {"measurement": "MIC", "setting": "[11]", "value": 100, "unit": "µg/mL"}, {"measurement": "MIC", "setting": "[12]", "value": 100, "unit": "µg/mL"}, {"measurement": "MIC", "setting": "[13]", "value": 100, "unit": "µg/mL"}, {"measurement": "MIC", "setting": "[14]", "value": 0.1, "unit": "µg/mL"}, {"measurement": "MIC", "setting": "[15]", "value": 0.1, "unit": "µg/mL"}, {"measurement": "MIC", "setting": "[16]", "value": 0.8, "unit": "µg/mL"}, {"measurement": "MIC", "setting": "[17]", "value": 0.1, "unit": "µg/mL"}, {"measurement": "MIC", "setting": "[18]", "value": 0.05, "unit": "µg/mL"}, {"measurement": "MIC", "setting": "[19]", "value": "< 0.0002", "unit": "µg/mL"}, {"measurement": "MIC", "setting": "[20]", "value": "< 0.0002", "unit": "µg/mL"}, {"measurement": "MIC", "setting": "[21]", "value": "< 0.0002", "unit": "µg/mL"}, {"measurement": "MIC", "setting": "[22]", "value": "< 0.0002", "unit": "µg/mL"}, {"measurement": "MIC", "setting": "[23]", "value": 25, "unit": "µg/mL"}, {"measurement": "MIC", "setting": "[24]", "value": 100, "unit": "µg/mL"}, {"measurement": "MIC", "setting": "[25]", "value": 100, "unit": "µg/mL"}, {"measurement": "MIC", "setting": "[26]", "value": 1.6, "unit": "µg/mL"}, {"measurement": "activity compared with ketoconazole", "setting": "[27]; Candida albicans ATCC 38247, amphotericin resistant, in words", "value": "stronger than that of ketoconazole"}, {"measurement": "MIC", "setting": "[27]; Candida albicans, ATCC38247, 40 h, pH 7", "value": 0.8, "unit": "µg/mL"}, {"measurement": "activity (compared with amphotericin B and ketoconazole)", "setting": "[28]; Cryptococcus neoformans D49, in words", "value": "much more active than amphotericin B and ketoconazole"}, {"measurement": "MIC", "setting": "[28]; Cryptococcus neoformans, D49, 40 h, pH 7", "value": 0.0063, "unit": "µg/mL"}, {"measurement": "activity (compared with amphotericin B and ketoconazole)", "setting": "[29]; C. neoformans IAM4514, in words", "value": "much more active than amphotericin B and ketoconazole"}, {"measurement": "MIC", "setting": "[29]; Cryptococcus neoformans, IAM4514, 40 h, pH 7", "value": 0.013, "unit": "µg/mL"}, {"measurement": "IC50", "setting": "[30]", "value": 0.0028, "unit": "µg/mL"}, {"measurement": "IC50", "setting": "[31]", "value": 0.0086, "unit": "µg/mL"}, {"measurement": "activity against gram-positive organisms compared with amikacin", "setting": "[32]; comparison in words", "value": "much better activities against these organisms than amikacin"}, {"measurement": "activity against gram-positive organisms", "setting": "[32]; in words", "value": "strong activity"}, {"measurement": "activity against gram-negatives compared with amikacin", "setting": "[33]", "value": "activity better than amikacin"}, {"measurement": "activity against Pseudomonas aeruginosa species", "setting": "[34]", "value": "did not show any activity"}, {"measurement": "cytotoxic activity compared with dynemicin A", "setting": "[35]", "value": "almost the same activity as dynemicin A"}, {"measurement": "solubility in 1,4-dioxane", "setting": "[36]; 1,4-dioxane", "value": "soluble"}, {"measurement": "solubility in acetonitrile", "setting": "[36]; acetonitrile", "value": "soluble"}, {"measurement": "solubility in dimethylformamide", "setting": "[36]; dimethylformamide", "value": "soluble"}, {"measurement": "solubility in dimethylsulfoxide", "setting": "[36]; dimethylsulfoxide", "value": "soluble"}, {"measurement": "solubility in ethyl acetate", "setting": "[36]; ethyl acetate", "value": "slightly soluble"}, {"measurement": "solubility in methanol", "setting": "[36]; methanol", "value": "slightly soluble"}, {"measurement": "solubility in n-hexane", "setting": "[36]; n-hexane", "value": "practically insoluble"}, {"measurement": "solubility in water", "setting": "[36]; water", "value": "practically insoluble"}]}]}
